Source: patent publication US8952024B2, “Herbicidal pyrimidone derivatives” (E I du Pont de Nemours and Company, priority 2009, dated 2015)

How the values were obtained:
Assay type in all cases: in vivo
[1] = test system: wheat (Triticum aestivum); assay: Test B pre-/postemergence plant response
Method in brief: (§1)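 Response scores were assigned visually after 13 to 15 days in a greenhouse, comparing treated pots with controls on a 0–100 scale where 100 denotes complete control. Preemergence treatments went onto freshly seeded loam/sand soil; postemergence treatments onto plants 2 to 18 cm tall.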

[2] = test system: cocklebur (Xanthium strumarium); assay: Test B pre-/postemergence plant response
Method in brief: as §1

[3] = test system: bermudagrass (Cynodon dactylon); assay: Test B pre-/postemergence plant response
Method in brief: as §1

[4] = test system: morningglory (Ipomoea spp.); assay: Test A pre-/postemergence plant response
Method in brief: (§2)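 Seeds planted in loam soil/sand blend; test chemicals in non-phytotoxic solvent mixture with surfactant applied as directed soil spray preemergence and, concurrently, postemergence to plants 2–10 cm tall at one- to two-leaf stage. Greenhouse ~10 days; visual injury vs untreated controls, 0 (no effect) to 100 (complete control).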

[5] = test system: velvetleaf (Abutilon theophrasti); assay: Test A pre-/postemergence plant response
Method in brief: as §2

[6] = test system: wheat (Triticum aestivum); assay: Test A pre-/postemergence plant response
Method in brief: as §2

[7] = test system: large crabgrass (Digitaria sanguinalis); assay: Test A pre-/postemergence plant response
Method in brief: as §2

[8] = test system: giant foxtail (Setaria faberii); assay: Test A pre-/postemergence plant response
Method in brief: as §2

corn (Zea mays) = assay: Test A pre-/postemergence plant response
Method in brief: as §2

[9] = test system: pigweed (Amaranthus retroflexus); assay: Test A pre-/postemergence plant response
Method in brief: as §2

[10] = test system: barnyardgrass (Echinochloa crus-galli); assay: Test A pre-/postemergence plant response
Method in brief: as §2

[11] = 31 g ai/ha, postemergence, scale 0 to 100, 0 is no effect, 100 is complete control
[12] = 62 g ai/ha, postemergence, 0 is no effect, 100 is complete control, 13 to 15 days
[13] = Postemergence, 250 g ai/ha, scale 0 to 100 (0 no effect, 100 complete control)
[14] = Postemergence, 125 g ai/ha, visual rating after 13 to 15 days, scale 0 (no effect) to 100 (complete control)
[15] = Postemergence, 125 g ai/ha, 0 to 100 scale where 0 is no effect and 100 is complete control
[16] = Postemergence, 500 g ai/ha, 0 to 100 scale, 0 = no effect, 100 = complete control, approx. ten days
[17] = Preemergence, 125 g ai/ha, 0 to 100 scale, 0 = no effect, 100 = complete control
[18] = Preemergence, 500 g ai/ha, visual injury, 0 to 100 scale (0 no effect, 100 complete control), approx. ten days
[19] = 250 g ai/ha, Preemergence, 0 to 100 scale
[20] = Postemergence, 62 g ai/ha, scale 0 (no effect) to 100 (complete control), 13 to 15 days
[21] = Preemergence, 31 g ai/ha, scale 0 to 100 (0 no effect, 100 complete control)
[22] = Preemergence, 125 g ai/ha, 0 to 100 scale
[23] = Postemergence, 31 g ai/ha, scale 0 to 100 (0 no effect, 100 complete control)
[24] = Postemergence, 250 g ai/ha, scale 0 to 100
[25] = Preemergence, 62 g ai/ha, scale 0 to 100, 0 no effect, 100 complete control
[26] = Postemergence, 125 g ai/ha, visual injury, 0 to 100 scale (0 no effect, 100 complete control), approx. ten days

O=C1CCCC(O)=C1C(=O)c1cnc(-c2ccccc2)n(C2CC2)c1=O [Compound 90]
10: Wheat plant response rating (0 to 100 scale) [1, 12]
70: Plant response rating, Bermudagrass [3, 11] | Plant response rating, Morningglory [4, 18] | Plant response rating, Velvetleaf [5, 17] | Plant response rating, Foxtail, Giant [8, 15] | Plant response rating, Barnyardgrass [10, 18]
80: Bermudagrass plant response rating (0 to 100 scale) [3, 12] | Plant response rating, Crabgrass, Large [7, 15] | Plant response rating, Foxtail, Giant [8, 16] | Plant response rating, Pigweed [9, 17] | Plant response rating, Barnyardgrass [10, 15]
20: Plant response rating, Corn (corn (Zea mays); [16])
85: Plant response rating, Bermudagrass [3, 14] | Plant response rating, Bermudagrass [3, 13]
60: Plant response rating, Crabgrass, Large [7, 17] | Plant response rating, Foxtail, Giant [8, 18]
0: Plant response rating, Morningglory [4, 17] | Plant response rating, Wheat [6, 15] | Plant response rating, Wheat [6, 17] | Plant response rating, Wheat [6, 18] | Plant response rating, Corn (corn (Zea mays); [15]) | Plant response rating, Corn (corn (Zea mays); [17]) | Plant response rating, Corn (corn (Zea mays); [18])
5: Plant response rating, Wheat [1, 11]
40: Plant response rating, Wheat [6, 16] | Plant response rating, Barnyardgrass [10, 17]
90: Cocklebur plant response rating (0 to 100 scale) [2, 12] | Plant response rating, Crabgrass, Large [7, 16] | Plant response rating, Barnyardgrass [10, 16]
100: Plant response rating, Cocklebur [2, 14] | Plant response rating, Cocklebur [2, 13] | Plant response rating, Morningglory [4, 15] | Plant response rating, Morningglory [4, 16] | Plant response rating, Velvetleaf [5, 15] | Plant response rating, Velvetleaf [5, 16] | Plant response rating, Velvetleaf [5, 18] | Plant response rating, Crabgrass, Large [7, 18] | Plant response rating, Pigweed [9, 15] | Plant response rating, Pigweed [9, 16] | Plant response rating, Pigweed [9, 18]
30: Plant response rating, Foxtail, Giant [8, 17]
35: Plant response rating, Wheat [1, 13]
75: Plant response rating, Cocklebur [2, 11]

Cc1cccc(-n2c(-c3cccc(Cl)c3)ncc(C(=O)C3=C(O)CCCC3=O)c2=O)c1 [Compound 45]
85: Plant response rating, Bermudagrass [3, 20]
40: Plant response rating, Wheat [6, 16] | Plant response rating, Barnyardgrass [10, 17]
98: Plant response rating, Bermudagrass [3, 21]
95: Cocklebur plant response rating [2, 24] | Plant response rating, Bermudagrass [3, 14]
60: Plant response rating, Velvetleaf [5, 17] | Crabgrass, Large plant response rating [7, 26]
15: Plant response rating, Wheat [1, 20] | Plant response rating, Wheat [1, 14]
80: Plant response rating, Bermudagrass [3, 23] | Morningglory plant response rating [4, 26] | Plant response rating, Foxtail, Giant [8, 18] | Plant response rating, Pigweed [9, 17] | Plant response rating, Barnyardgrass [10, 18]
100: Plant response rating, Bermudagrass [3, 19] | Bermudagrass plant response rating [3, 24] | Plant response rating, Bermudagrass [3, 25] | Bermudagrass plant response rating [3, 22] | Plant response rating, Morningglory [4, 16] | Velvetleaf plant response rating [5, 26] | Plant response rating, Velvetleaf [5, 16] | Plant response rating, Velvetleaf [5, 18] | Plant response rating, Crabgrass, Large [7, 18] | Plant response rating, Pigweed [9, 16] | Plant response rating, Pigweed [9, 18] | Plant response rating, Barnyardgrass [10, 16]
0: Plant response rating, Wheat [1, 19] | Plant response rating, Wheat [1, 21] | Wheat plant response rating [1, 22] | Wheat plant response rating [6, 26] | Plant response rating, Wheat [6, 17] | Plant response rating, Foxtail, Giant [8, 17] | Corn plant response rating (corn (Zea mays); [26]) | Plant response rating, Corn (corn (Zea mays); [17]) | Plant response rating, Corn (corn (Zea mays); [18])
20: Plant response rating, Morningglory [4, 17] | Plant response rating, Wheat [6, 18] | Plant response rating, Corn (corn (Zea mays); [16])
90: Plant response rating, Morningglory [4, 18] | Plant response rating, Crabgrass, Large [7, 16] | Plant response rating, Foxtail, Giant [8, 16] | Pigweed plant response rating [9, 26] | Barnyardgrass plant response rating [10, 26]
50: Plant response rating, Cocklebur [2, 20] | Plant response rating, Crabgrass, Large [7, 17] | Foxtail, Giant plant response rating [8, 26]
70: Plant response rating, Cocklebur [2, 14]
10: Plant response rating, Cocklebur [2, 23]

5-[(2-hydroxy-6-oxo-1-cyclohexen-1-yl)carbonyl]-3-phenyl-2-(3-pyridinyl)-4(3H)-pyrimidone [Compound 113]
70: Cocklebur plant response rating [2, 24] | Bermudagrass plant response rating [3, 24] | Plant response rating, Crabgrass, Large [7, 16] | Plant response rating, Barnyardgrass [10, 16]
0: Plant response rating, Wheat [1, 19] | Plant response rating, Wheat [1, 23] | Plant response rating, Wheat [1, 20] | Plant response rating, Wheat [1, 21] | Plant response rating, Wheat [1, 25] | Wheat plant response rating [1, 22] | Plant response rating, Cocklebur [2, 21] | Plant response rating, Cocklebur [2, 25] | Cocklebur plant response rating [2, 22] | Plant response rating, Bermudagrass [3, 21] | Plant response rating, Bermudagrass [3, 25] | Plant response rating, Morningglory [4, 17] | Wheat plant response rating [6, 26] | Plant response rating, Wheat [6, 17] | Plant response rating, Wheat [6, 18] | Plant response rating, Crabgrass, Large [7, 17] | Plant response rating, Foxtail, Giant [8, 17] | Corn plant response rating (corn (Zea mays); [26]) | Plant response rating, Corn (corn (Zea mays); [17]) | Plant response rating, Corn (corn (Zea mays); [18]) | Plant response rating, Barnyardgrass [10, 17]
15: Wheat plant response rating [1, 24]
20: Plant response rating, Foxtail, Giant [8, 18]
50: Crabgrass, Large plant response rating [7, 26]
85: Bermudagrass plant response rating [3, 22]
45: Plant response rating, Cocklebur [2, 23] | Plant response rating, Cocklebur [2, 20] | Plant response rating, Bermudagrass [3, 20]
100: Morningglory plant response rating [4, 26] | Plant response rating, Morningglory [4, 16] | Velvetleaf plant response rating [5, 26] | Plant response rating, Velvetleaf [5, 16] | Plant response rating, Velvetleaf [5, 18] | Plant response rating, Pigweed [9, 16]
60: Plant response rating, Velvetleaf [5, 17] | Plant response rating, Foxtail, Giant [8, 16]
80: Pigweed plant response rating [9, 26] | Plant response rating, Pigweed [9, 18]
10: Plant response rating, Wheat [1, 14] | Plant response rating, Pigweed [9, 17] | Plant response rating, Barnyardgrass [10, 18]
75: Plant response rating, Cocklebur [2, 19]
30: Barnyardgrass plant response rating [10, 26]
40: Plant response rating, Morningglory [4, 18] | Plant response rating, Wheat [6, 16] | Plant response rating, Crabgrass, Large [7, 18] | Foxtail, Giant plant response rating [8, 26] | Plant response rating, Corn (corn (Zea mays); [16])
98: Plant response rating, Bermudagrass [3, 19]
65: Plant response rating, Cocklebur [2, 14] | Plant response rating, Bermudagrass ([3]; Postemergence, 125 g ai/ha, scale 0 to 100 (0 no effect, 100 complete control), 13 to 15 days)
35: Plant response rating, Bermudagrass [3, 23]
